Among the test systems are SK-MEL-5; NCI/ADR-RES; HCT-15; SNB-19; Malme-3M; SF-268; ACHN; MDA-MB-435; IGROV-1; BT-549; COLO 205; SK-MEL-2; K562; SK-MEL-28; UACC-62; A549; CCRF-CEM; PC-3; SN12C; UO-31.
Assay in all cases: NCI tumour cell line growth inhibition, 48 h

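A five-concentration, 48-hour dose response in 96-well plates underlies each endpoint, interpolated linearly between surrounding concentrations. GI50: concentration for 50% inhibition of growth.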 Activity calls are given as the source filed them. Cut-off read from the data, not from the text of the source: active = GI50 up to about 1.1 µM and inactive = higher. Where only a bound is given, the exact number is not on record here.

Take `COC1(C)CP(=O)(OC(C)C)CC(C)=C1Cl` (stereo not given): the GI50 in the test with SK-MEL-5 is 12.4 µM (inactive); in the test with NCI/ADR-RES, 17.8 µM (inactive); with HCT-15, 12.3 µM; in the test with SNB-19 it was 28.4 µM (inactive); with Malme-3M, 17.3 µM (inactive); with SF-268 it was 32.2 µM (inactive). Also, the GI50 was 18.4 µM (inactive) in the test on ACHN; 13.6 µM (inactive) in the test with MDA-MB-435; 11.6 µM (inactive) with IGROV-1; 12.7 µM (inactive) with BT-549; 14.5 µM (inactive) with COLO 205; 6.41 µM (inactive) in the test with SK-MEL-2. Besides, the GI50 was 3.36 µM (inactive) with K562; 21.7 µM (inactive) in the test on SK-MEL-28; 10.2 µM (inactive) in the test with UACC-62; 17.1 µM (inactive) in the test with A549; 3.66 µM (inactive) in the test on CCRF-CEM; 25.5 µM (inactive) in the test on PC-3. Besides, the GI50 in the test with SN12C is 15.2 µM (inactive); with UO-31 it was 17.8 µM (inactive).
As for `O=c1[nH]c(=O)n(C/C=C/CBr)nc1Br`, the GI50 is 13.2 µM (inactive) in the test on SK-MEL-5; 17.6 µM (inactive) with NCI/ADR-RES; 14.5 µM in the test on HCT-15; 14.7 µM (inactive) in the test on SNB-19; 14.2 µM (inactive) in the test with Malme-3M; 14.1 µM (inactive) in the test with SF-268. Besides, the GI50 was 13 µM (inactive) with ACHN; 13.6 µM (inactive) in the test on MDA-MB-435; 15.9 µM (inactive) in the test with IGROV-1; 14.5 µM (inactive) in the test on BT-549; 14.2 µM (inactive) in the test with COLO 205; 12.6 µM (inactive) in the test with SK-MEL-2. The GI50 in the test on K562 was 15.8 µM (inactive); in the test with SK-MEL-28 it was 14.9 µM (inactive); in the test on UACC-62, 13.8 µM (inactive); with A549 it was 15.8 µM (inactive); in the test with CCRF-CEM, 7.74 µM (inactive); with PC-3, 12.2 µM (inactive). Further, the values for the GI50 in the test on SN12C and with UO-31 were 14.8 µM (inactive) and 18.5 µM (inactive), respectively.
Regarding `CCN1C[C@]2(COC)[C@H](O)C[C@H](OC)[C@]34C1[C@H]([C@H](OC)[C@H]23)[C@]1(OC(C)=O)[C@H]2[C@@H](OC(=O)c3ccccc3)[C@](O)(C[C@H]24)[C@@H](OC)[C@@H]1O`, the GI50 in the test with SK-MEL-5 is > 100 µM (inactive); with NCI/ADR-RES, > 100 µM (inactive); in the test with HCT-15, more than 100 µM; in the test with SNB-19, > 100 µM (inactive); in the test on Malme-3M, > 100 µM (inactive); in the test on SF-268, > 100 µM (inactive). Further, the GI50 with ACHN, with MDA-MB-435, in the test on IGROV-1, in the test with BT-549, in the test on COLO 205 and in the test on SK-MEL-2 was > 100 µM (inactive) in each case. Besides, the GI50 in the test with K562, in the test on SK-MEL-28, with UACC-62, in the test with A549, with CCRF-CEM and in the test on PC-3 was > 100 µM (inactive) each time. Further, the GI50 in the test with SN12C and in the test on UO-31 was > 100 µM (inactive) in each case.
On to `Cn1c2ccccc2c2c3c(c4c5ccccc5n(C5OC(CO)C(O)C(O)C5O)c4c21)C(=O)OC3=O` (stereo not given), for which the GI50 was > 100 µM (inactive) in the test on SK-MEL-5; > 100 µM (inactive) with NCI/ADR-RES; more than 100 µM with HCT-15; > 100 µM (inactive) with SNB-19; > 100 µM (inactive) with Malme-3M; > 100 µM (inactive) in the test on SF-268. The GI50 in the test on ACHN, with MDA-MB-435, in the test with IGROV-1, with BT-549, in the test with COLO 205 and in the test on SK-MEL-2 was > 100 µM (inactive) throughout. Besides, the GI50 in the test with K562, in the test with SK-MEL-28, in the test with UACC-62, in the test on A549, in the test on CCRF-CEM and in the test on PC-3 was > 100 µM (inactive) throughout. Moreover, the GI50 in the test with SN12C and in the test on UO-31 was > 100 µM (inactive) each time.

For the origin of these results see ChEMBL document CHEMBL1201862, “PubChem BioAssay data set” (2004).
